Measured values as given in patent publication US8399521B2, “Methods of treating skin with aromatic skin-active ingredients” (Mary Kay Inc., priority 2008, dated 2013).

Tests used:
TNF-α = TNF-α secretion by PMA-treated human keratinocytes (ELISA); format: cell-based; conditions: 0.01% test compound; PMA 10 ng/ml, 6 hours; % change in secreted TNF-α, negative = reduction; Table 2
Source text: Tumor necrosis factor alpha (TNF-α) assay: The prototype ligand of the TNF superfamily, TNF-α, is a pleiotropic cytokine that plays a central role in inflammation. Increase in its expression is associated with an up regulation in pro-inflammatory activity. This bioassay analyzes the effect of compounds on the production of TNF-α by human epidermal keratinocytes. The endpoint of this assay is a spectrophotometric measurement that reflects the presence of TNF-α and cellular viability. The assay employs the quantitative sandwich enzyme immunoassay technique whereby a monoclonal antibody specific for TNF-α has been pre-coated onto a microplate. Standards and samples are pipetted into the wells and any TNF-α present is bound by the immobilized antibody. After washing away any unbound substances, an enzyme-linked polyclonal antibody specific for TNF-α is added to the wells. Following a wash to remove any unbound antibody-enzyme reagent, a substrate solution is added to the wells and color develops in proportion to the amount of TNF-α bound in the initial step using a microplate reader for detection at 450 nm. The color development is stopped and the intensity of the color is measured.
Subconfluent normal human adult keratinocytes (Cascade Biologics) cultivated in EpiLife standard growth medium (Cascade Biologics) at 37° C. in 5% CO2, were treated with PMA (10 ng/ml, Sigma Chemical, #P1585-1MG) and test compounds for 6 hours. […] Following incubation, cell culture medium was collected and the amount of TNF-a secretion quantified using a sanwhich enzyme linked immuno-sorbant assay (ELISA) from R&D Systems ([…]). Following all manufacturer instructions, medium from treated cells was incubated with antibodies directed against human TNF-α which were bound to microtiter plates. The amount of TNF-α protein was quantified by comparison of optical density units to standard concentrations of purified TNF-α protein. Values are calculated as % change in the amount of TNF-α protein secreted between control and treated samples. […]

15-lipoxygenase = target: T1, 15-lipoxygenase (Glycine max, UniProt P08170); experiment: Lipoxygenase (LO) inhibition assay; format: biochemical; conditions: 0.1% test compound; negative = inhibition vs non-treated control; Table 2
T1 construct: purchased Cayman Chemical 760700
T1 sequence (P08170 1-839): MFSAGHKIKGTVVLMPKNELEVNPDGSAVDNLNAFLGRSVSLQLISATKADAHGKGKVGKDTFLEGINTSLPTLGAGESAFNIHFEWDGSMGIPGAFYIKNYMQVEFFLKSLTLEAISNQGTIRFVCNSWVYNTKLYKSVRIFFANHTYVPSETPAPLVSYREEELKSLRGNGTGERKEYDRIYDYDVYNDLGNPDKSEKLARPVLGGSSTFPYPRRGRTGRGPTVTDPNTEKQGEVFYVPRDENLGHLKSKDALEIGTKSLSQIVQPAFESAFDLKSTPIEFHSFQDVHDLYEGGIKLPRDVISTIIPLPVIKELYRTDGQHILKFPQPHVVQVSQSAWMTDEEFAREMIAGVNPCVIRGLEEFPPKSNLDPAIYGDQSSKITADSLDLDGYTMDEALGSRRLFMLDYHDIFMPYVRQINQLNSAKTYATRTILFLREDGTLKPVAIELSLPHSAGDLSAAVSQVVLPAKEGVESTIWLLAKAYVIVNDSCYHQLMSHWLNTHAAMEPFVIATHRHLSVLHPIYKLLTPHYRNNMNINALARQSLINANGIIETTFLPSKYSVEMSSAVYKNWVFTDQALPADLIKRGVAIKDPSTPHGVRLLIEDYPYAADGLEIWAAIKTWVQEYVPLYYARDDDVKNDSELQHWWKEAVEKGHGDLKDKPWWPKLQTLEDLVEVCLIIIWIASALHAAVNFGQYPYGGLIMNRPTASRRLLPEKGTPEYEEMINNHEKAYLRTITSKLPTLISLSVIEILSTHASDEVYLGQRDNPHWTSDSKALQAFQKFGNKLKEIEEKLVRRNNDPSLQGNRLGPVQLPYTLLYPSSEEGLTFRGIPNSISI
Experimental: Lipoxygenase (LO) assay: An in vitro lipoxygenase (LO) inhibition assay. LOs are non-heme iron-containing dioxygenases that catalyze the addition of molecular oxygen to fatty acids. Linoleate and arachidonate are the main substrates for LOs in plants and animals. […] This assay provides an accurate and convenient method for screening lipoxygenase inhibitors by measuring the hydroperoxides generated from the incubation of a lipoxygenase (5-, 12-, or 15-LO) with arachidonic acid.
Following incubation, arachidonic acid was added to initiate the reaction and mixtures incubated for an additional 10 min at room temperature. Colorimetric substrate was added to terminate catalysis and color progression was evaluated by fluorescence plate reading at 490 nm. The percent inhibition of lipoxyganse activity was calculated compared to non-treated controls to determine the ability of test compounds to inhibit the activity of purified enzyme.

| LO Inhibition (0.1%) (15-lipoxygenase) | Molecule | TNF-α Inhibition (0.01%) (TNF-α) |
| --- | --- | --- |
|  | CCCCCCCCC(C)C=O (stereo not shown) [Aldehyde C-11 MOA, 2-methyldecanal] | −38.68% |
|  | 3-(4-ethylphenyl)-2,2-dimethylpropanal and 3-(2-ethylphenyl)-2,2-dimethylpropanal [Floralozone] | −33.20% |
| −27.46% | CCCCCC/C=C/C(=O)OC [Neofolione, methyl non-2-enoate] | −53.90% |
